Assay results as given in PubChem BioAssay AID1159564 (GlaxoSmithKline (GSK), 2015).
Calls of active or inactive are those of the source. The rule behind the calls is not given here.

Test system: L. donovani-infected THP-1 macrophages, intracellular amastigote imaging
Assay: intracellular L. donovani amastigote inhibition, imaging, THP-1 host macrophages, host toxicity (AID 1159564)
[1] = measured here: THP-1 host cell toxicity
[2] = measured here: amastigotes per macrophage

| SMILES | IC50 | IC50 [1] [µM] | IC50 [2] [µM] |
| --- | --- | --- | --- |
| COc1ccc(S(=O)(=O)NCc2ccc(-c3ccc(CN(C)CCO)cc3)cc2)cc1 | 16 µM | 20 | 20 |
| CNC(=O)C1Cc2ccccc2N1C(=O)Cc1ccc(F)cc1 (configuration not stated) | > 50 µM (inactive) | > 50 | > 50 |
| Cc1cc(C)nc(N2CCC(N(Cc3cccnc3)C(=O)c3cccc(C#N)c3)CC2)n1 | > 50 µM (inactive) | > 50 | > 50 |
| CNS(=O)(=O)c1ccccc1Nc1nc(Nc2cc(C)nn2C)ncc1Cl | 1 µM | 0.2 | 0.25 |
| Fc1ccc(Nc2nc(-c3ccccn3)cs2)cc1 | 10 µM | > 50 | 6.3 |
| COc1cccc(Nc2cc(C)nc(-c3ccccn3)n2)c1 | 2 µM | > 50 | 1.3 |
| Cc1[nH]c2ccccc2c(=O)c1Cc1c(C)[nH]c2ccccc2c1=O | > 50 µM (inactive) | > 50 | > 50 |
| CN(Cc1ccc(C(N)=O)cc1)C(c1ccc(F)cc1)c1cccnc1 (configuration not stated) | > 50 µM (inactive) | > 50 | > 50 |
| CCCn1c(NC(=O)CCn2cc(Br)cn2)nc2ccccc21 | 10 µM | > 50 | 5 |
| CC1=NN(C(=O)CCn2cnc([N+](=O)[O-])n2)C(O)(C(F)(F)F)C1 (configuration not stated) | > 50 µM (inactive) | > 50 | > 50 |
| Nc1nc(-c2ccccn2)nc(-n2nc(-c3ccccc3)cc2N)n1 | 0.79 µM | 10 | 0.79 |
| NC(N)=Nc1nc(-c2ccc(NC(N)=NCCN3CCCC3)cc2)cs1 | > 50 µM (inactive) | > 50 | > 50 |
| O=C(NCCc1csc(-c2ccc(F)cc2)n1)c1cccs1 | > 50 µM (inactive) | > 50 | 20 |
| Cc1ccc(Nc2nc(N)nc(CNC(c3nc4ccccc4[nH]3)C(C)C)n2)cc1 (configuration not stated) | 2 µM | 25 | 1.3 |
| N#Cc1cccc(CN2CCC(c3nc(-c4ccc(C(F)(F)F)nc4)no3)CC2)c1 | > 50 µM (inactive) | > 50 | > 50 |
| CCN(CC)c1nc(N(C)C)nc2c1CN(Cc1ccccc1)CC2 | 6.3 µM | 40 | 4 |
| COc1ncc(-c2ccc3ncnc(N4CCOCC4)c3c2)cc1NS(C)(=O)=O | 5 µM | 1 | 0.63 |

| SMILES | IC50 | IC50 [1] [µM] | IC50 [2] [µM] |
| --- | --- | --- | --- |
| COc1ccc(NS(=O)(=O)c2cc(NC(=O)c3ccc([N+](=O)[O-])s3)ccc2OC)cc1 | 0.79 µM | 13 | 0.79 |
| Cc1cc(C)n(-c2nc(NC(C)C)nc(NC(C)(C)C)n2)n1 | 5 µM | 6.3 | 4 |
| COc1ccc(-c2cnc(C)o2)cc1S(=O)(=O)Nc1ccc(C)cc1C | 3.2 µM | > 50 | 2.5 |
| CNc1c(C(N)=O)c(-c2ccc3scnc3c2)nn1CC(F)(F)F | > 50 µM (inactive) | > 50 | > 50 |
| Cc1nccn1C1CCCN(C(=O)c2cc3c(F)cccc3s2)C1 (configuration not stated) | > 50 µM (inactive) | > 50 | > 50 |
| O=c1[nH]cnc2c([C@@H]3O[C@H](CO)[C@@H](O)[C@H]3O)[nH]nc12 | 2 µM | > 50 | 0.4 |
| Cc1ncsc1CNc1cnc(-c2ccc3c(c2)OCCO3)c(-c2cnn(C)c2)c1 | 16 µM | 16 | 13 |
| Fc1ccc(OC2CC(NCc3cccc4cn[nH]c34)C2)cc1C(F)(F)F (configuration not stated) | 7.9 µM | 10 | 7.9 |
| COc1ccc(S(=O)(=O)Nc2ccccc2OC)cc1NC(=O)CCCc1c[nH]c2ccccc12 | > 50 µM (inactive) | > 50 | > 50 |
| COc1cnc2ccc(=O)n(CCN3CCC(NC(=O)c4ccc(Cl)cc4)CC3)c2c1 | > 50 µM (inactive) | > 50 | 4 |
| O=C(COc1ccccc1)Nc1ccccc1C(=O)Nc1nccs1 | > 50 µM (inactive) | 7.9 | > 50 |
| COc1cccc(C(=O)[C@H]2C[C@@H]2CN(Cc2cccnc2)Cc2cccnc2)c1 | > 50 µM (inactive) | 40 | 7.9 |
| CS(=O)(=O)NC1CCC(Nc2ncc(Br)c(Nc3ccccc3C(N)=O)n2)CC1 (configuration not stated) | 2 µM | 0.5 | 0.79 |
| Nc1cc(-c2ccc3ncnc(N4CCOCC4)c3c2)cnc1N | 10 µM | > 50 | 1.3 |
| Cc1[nH]n2c(=O)c3c(nc2c1-c1ccc(F)cc1)CCCC3 | > 50 µM (inactive) | > 50 | > 50 |
| Cc1ccc(NC(=O)c2ccc(Cl)c(NC(=O)c3ccc([N+](=O)[O-])cc3)c2)cc1 | > 50 µM (inactive) | > 50 | > 50 |
| O=C(Nc1nccs1)c1ccccc1Cn1cc([N+](=O)[O-])cn1 | > 50 µM (inactive) | > 50 | > 50 |
